From PubChem BioAssay (NCI)
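Exposure lasted 48 hours, with cells grown in 96-well plates and compounds tested at five concentrations. TGI: concentration producing complete growth inhibition.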

Experiments:
Test in all cases: DTP human tumour cell line panel, 48 h
IGROV1 ovarian = tested on: IGROV1 ovarian
HOP-62 NSCLC = tested on: HOP-62 NSCLC
OVCAR-8 ovarian = tested on: OVCAR-8 ovarian
SK-OV-3 ovarian = tested on: SK-OV-3 ovarian
OVCAR-4 ovarian = tested on: OVCAR-4 ovarian
BT-549 breast = tested on: BT-549 breast
HCC-2998 colon = tested on: HCC-2998 colon
HL-60(TB) leukemia = tested on: HL-60(TB) leukemia
SK-MEL-5 melanoma = tested on: SK-MEL-5 melanoma
SK-MEL-2 melanoma = tested on: SK-MEL-2 melanoma
COLO 205 colon = tested on: COLO 205 colon
SF-268 CNS = tested on: SF-268 CNS
SR leukemia = tested on: SR leukemia
SK-MEL-28 melanoma = tested on: SK-MEL-28 melanoma
RPMI-8226 leukemia = tested on: RPMI-8226 leukemia
UACC-62 melanoma = tested on: UACC-62 melanoma
HOP-92 NSCLC = tested on: HOP-92 NSCLC
NCI-H23 lung = tested on: NCI-H23 lung
SW-620 colon = tested on: SW-620 colon
UACC-257 melanoma = tested on: UACC-257 melanoma
SF-295 CNS = tested on: SF-295 CNS
OVCAR-5 ovarian = tested on: OVCAR-5 ovarian
M14 melanoma = tested on: M14 melanoma
K-562 leukemia = tested on: K-562 leukemia
CCRF-CEM leukemia = tested on: CCRF-CEM leukemia
NCI-H460 lung = tested on: NCI-H460 lung
TK-10 renal = tested on: TK-10 renal
ACHN renal = tested on: ACHN renal
MDA-MB-231 breast = tested on: MDA-MB-231 breast
HS 578T breast = tested on: HS 578T breast
NCI/ADR-RES ovarian = tested on: NCI/ADR-RES ovarian
T-47D breast = tested on: T-47D breast
MALME-3M melanoma = tested on: MALME-3M melanoma
UO-31 renal = tested on: UO-31 renal
SN12C renal = tested on: SN12C renal
SNB-19 CNS = tested on: SNB-19 CNS
OVCAR-3 ovarian = tested on: OVCAR-3 ovarian
SNB-75 CNS = tested on: SNB-75 CNS
DU-145 prostate = tested on: DU-145 prostate
EKVX NSCLC = tested on: EKVX NSCLC
KM12 colon = tested on: KM12 colon
NCI-H226 lung = tested on: NCI-H226 lung
A549 NSCLC = tested on: A549 NSCLC
HCT-15 colon = tested on: HCT-15 colon
NCI-H522 lung = tested on: NCI-H522 lung
HT29 colon = tested on: HT29 colon
U251 CNS = tested on: U251 CNS
LOX IMVI melanoma = tested on: LOX IMVI melanoma
PC-3 prostate = tested on: PC-3 prostate
MCF7 breast = tested on: MCF7 breast
HCT-116 colon = tested on: HCT-116 colon
CAKI-1 renal = tested on: CAKI-1 renal
786-0 renal = tested on: 786-0 renal
SF-539 CNS = tested on: SF-539 CNS
RXF 393 renal = tested on: RXF 393 renal
A498 renal = tested on: A498 renal
MDA-N = tested on: MDA-N
MOLT-4 leukemia = tested on: MOLT-4 leukemia
MDA-MB-435 = tested on: MDA-MB-435

SMILES: COc1ccc(-c2c(C#N)c(=O)nc(SC)n2C2OCC(OC(C)=O)C(OC(C)=O)C2OC(C)=O)cc1 (stereo not drawn)
- TGI (IGROV1 ovarian): > 100 µM
- TGI (HOP-62 NSCLC): > 100 µM
- TGI (OVCAR-8 ovarian): > 100 µM
- TGI (SK-OV-3 ovarian): > 100 µM
- TGI (OVCAR-4 ovarian): > 100 µM
- TGI (BT-549 breast): > 100 µM
- TGI (HCC-2998 colon): > 100 µM
- TGI (HL-60(TB) leukemia): > 100 µM
- TGI (SK-MEL-5 melanoma): > 100 µM
- TGI (SK-MEL-2 melanoma): > 100 µM
- TGI (COLO 205 colon): > 100 µM
- TGI (SF-268 CNS): > 100 µM
- TGI (SR leukemia): 53.3 µM
- TGI (SK-MEL-28 melanoma): > 100 µM
- TGI (RPMI-8226 leukemia): > 100 µM
- TGI (UACC-62 melanoma): > 100 µM
- TGI (HOP-92 NSCLC): > 100 µM
- TGI (NCI-H23 lung): > 100 µM
- TGI (SW-620 colon): > 100 µM
- TGI (UACC-257 melanoma): > 100 µM
- TGI (SF-295 CNS): > 100 µM
- TGI (OVCAR-5 ovarian): > 100 µM
- TGI (M14 melanoma): > 100 µM
- TGI (K-562 leukemia): > 100 µM
- TGI (CCRF-CEM leukemia): > 100 µM
- TGI (NCI-H460 lung): > 100 µM
- TGI (TK-10 renal): > 100 µM
- TGI (ACHN renal): > 100 µM
- TGI (MDA-MB-231 breast): > 100 µM
- TGI (HS 578T breast): > 100 µM
- TGI (NCI/ADR-RES ovarian): > 100 µM
- TGI (T-47D breast): > 100 µM
- TGI (MALME-3M melanoma): > 100 µM
- TGI (UO-31 renal): > 100 µM
- TGI (SN12C renal): > 100 µM
- TGI (SNB-19 CNS): > 100 µM
- TGI (OVCAR-3 ovarian): > 100 µM
- TGI (SNB-75 CNS): > 100 µM
- TGI (DU-145 prostate): > 100 µM
- TGI (EKVX NSCLC): > 100 µM
- TGI (KM12 colon): > 100 µM
- TGI (NCI-H226 lung): > 100 µM
- TGI (A549 NSCLC): > 100 µM
- TGI (HCT-15 colon): > 100 µM
- TGI (NCI-H522 lung): > 100 µM
- TGI (HT29 colon): > 100 µM
- TGI (U251 CNS): > 100 µM
- TGI (LOX IMVI melanoma): > 100 µM
- TGI (PC-3 prostate): > 100 µM
- TGI (MCF7 breast): > 100 µM
- TGI (HCT-116 colon): > 100 µM
- TGI (CAKI-1 renal): > 100 µM
- TGI (786-0 renal): > 100 µM
- TGI (SF-539 CNS): > 100 µM
- TGI (RXF 393 renal): > 100 µM
- TGI (A498 renal): > 100 µM
- TGI (MDA-N): > 100 µM
- TGI (MOLT-4 leukemia): > 100 µM
- TGI (MDA-MB-435): > 100 µM

SMILES: N#Cc1c2c(c(Nc3ccc(F)cc3)n3c1nc1ccccc13)CCCC2
- TGI (IGROV1 ovarian): > 100 µM
- TGI (HOP-62 NSCLC): > 100 µM
- TGI (OVCAR-8 ovarian): > 100 µM
- TGI (SK-OV-3 ovarian): > 100 µM
- TGI (OVCAR-4 ovarian): > 100 µM
- TGI (BT-549 breast): > 100 µM
- TGI (HCC-2998 colon): > 100 µM
- TGI (HL-60(TB) leukemia): > 100 µM
- TGI (SK-MEL-5 melanoma): > 100 µM
- TGI (SK-MEL-2 melanoma): > 100 µM
- TGI (COLO 205 colon): > 100 µM
- TGI (SF-268 CNS): > 100 µM
- TGI (SR leukemia): > 100 µM
- TGI (SK-MEL-28 melanoma): > 100 µM
- TGI (RPMI-8226 leukemia): > 100 µM
- TGI (UACC-62 melanoma): > 100 µM
- TGI (HOP-92 NSCLC): > 100 µM
- TGI (NCI-H23 lung): > 100 µM
- TGI (SW-620 colon): > 100 µM
- TGI (UACC-257 melanoma): > 100 µM
- TGI (SF-295 CNS): > 100 µM
- TGI (OVCAR-5 ovarian): > 100 µM
- TGI (M14 melanoma): > 100 µM
- TGI (K-562 leukemia): > 100 µM
- TGI (CCRF-CEM leukemia): > 100 µM
- TGI (NCI-H460 lung): > 100 µM
- TGI (TK-10 renal): > 100 µM
- TGI (ACHN renal): > 100 µM
- TGI (MDA-MB-231 breast): > 100 µM
- TGI (HS 578T breast): > 100 µM
- TGI (NCI/ADR-RES ovarian): > 100 µM
- TGI (T-47D breast): > 100 µM
- TGI (MALME-3M melanoma): > 100 µM
- TGI (UO-31 renal): > 100 µM
- TGI (SN12C renal): > 100 µM
- TGI (SNB-19 CNS): > 85.2 µM
- TGI (OVCAR-3 ovarian): > 100 µM
- TGI (SNB-75 CNS): > 100 µM
- TGI (DU-145 prostate): > 100 µM
- TGI (EKVX NSCLC): > 100 µM
- TGI (KM12 colon): > 100 µM
- TGI (NCI-H226 lung): > 100 µM
- TGI (A549 NSCLC): > 100 µM
- TGI (HCT-15 colon): > 100 µM
- TGI (NCI-H522 lung): > 100 µM
- TGI (HT29 colon): > 100 µM
- TGI (U251 CNS): > 100 µM
- TGI (LOX IMVI melanoma): > 100 µM
- TGI (PC-3 prostate): > 100 µM
- TGI (MCF7 breast): > 100 µM
- TGI (HCT-116 colon): > 100 µM
- TGI (CAKI-1 renal): > 100 µM
- TGI (786-0 renal): > 100 µM
- TGI (SF-539 CNS): > 100 µM
- TGI (RXF 393 renal): > 86 µM
- TGI (A498 renal): > 100 µM
- TGI (MDA-N): > 100 µM
- TGI (MOLT-4 leukemia): > 100 µM
- TGI (MDA-MB-435): > 100 µM
